Target: Beta-lactamase (Enterobacter cloacae) (UniProt P05364)
Assay: The beta-lactamase inactivation partition ratio of the compound

SMILES | Partition ratio
CC(=O)OCC1=C(C(=O)[O-])N2C(=O)C(=C=CC(C)(C)C)[C@H]2S(=O)(=O)C1.[Na+] | 12
CC(=O)OCC1=C(C(=O)[O-])N2C(=O)/C(=C/c3ccccn3)[C@H]2S(=O)(=O)C1.[Na+] | 20
